Format in all cases: in vivo, Balb/c mice
The test system of one assay is PAX4. The experiment in a line: Western blot of pancreatic PAX4. The settings on record: normal mice, vs normal control group. As to the method:
(§1) Each of the normal (N) (n=20) and diabetic (D) (n=20) groups was divided into four subgroups. The first group (N1 and D1) (n=5) received 6.7 mg/kg intraperitoneally growth hormone for two weeks. The second group (N2 and D2) (n=5) administrated 0.185 mg/kg intraperitoneally magainin II for approximately four weeks. The third group (N3 and D3) (n=5) first received 0.185 mg/kg of magainin II for four weeks, and then 6.7 mg/kg of growth hormone for two weeks. Finally, the fourth group (N4 and D4) (n=5) received only an equal volume of physiological saline instead of these treatments.
(§2) Proteins were extracted in RIPA buffer which are containing Tris-HCl buffer (100 mM, pH 7.5), ethylene diamine tetra acetic acid (EDTA, 10 mM), sodium pyrophosphate (10 mM), sodium fluoride (0.1 mM), sodium orthovanadate (10 mM), phenylmethylsulphonyl fluoride (PMSF, 2 mM), and aprotinin (10 mg/ml). The pancreas extracts were vortexed for 30 min frequently at 4° C. The homogenates were centrifuged at 12,000 rpm for 20 min at 4° C. The supernatants were stored in an −80° C. freezer. Total protein concentration was determined by the Lowry method. […]
(§3) All values are depicted as mean±SEM and considered significant if p<0.05. […] Data were analyzed using GraphPad Prism software and the results of groups were compared with the ANOVA test.
In general terms: A western blot detects proteins with antibodies after separation by electrophoresis.

Assay [1] can be described thus: Fasting blood sugar (FBS) in normal and STZ-induced type 1 diabetic mice. The settings on record: STZ-induced type 1 diabetic mice, IP; for mean percentage of FBS changes decreased by: end of treatment, value is a decrease (untreated D4 increased by 49.23%). As to the method:
In a 14-day period, diabetes type 1 was induced in a group of mice via injecting multiple low doses of Streptozotocin (STZ). Also, the other group of mice received an equal volume of citrate buffer (pH 4.5) intraperitoneally (I.P.) in the same procedure that was called the normal group.
as §1
(§4) FBS measurements before the treatment and weekly during the treatment, and glucose tolerance test (GTT) at the end of the treatment were performed. The pancreatic tissue was quickly removed and placed in a cold phosphate buffer saline (PBS). Some of the extracted tissues for additional tests were stored in a freezer (−80° C.) and some were immersed in 4% paraformaldehyde (PFA) for immunohistochemical staining.
Diabetes type 1 was induced in a group of mice via injecting multiple low doses of Streptozotocin (STZ) (40 mg/kg, intraperitoneal) for five consecutive days. The STZ dissolved in the 50 mM sodium citrate buffer (pH 4.5) to a final concentration of 4 mg/ml, immediately prior to injection. Nine days after the last STZ injection, all the mice have their FBS (fasting blood sugar) over 200 mg/dl were considered as type 1 diabetic mice group.
(§5) FBS levels were measured after fasting mice for 6 h (7:00-13:00) with an Accu-Chek glucometer via tail vein. Also in the glucose tolerance test, six hours after the mice were deprived of food (7:00-13:00), the first FBS was measured and after that mouse administrated glucose (2 g/kg bodyweight, intraperitoneally), and then at the indicated time points post-injection, blood glucose levels were measured.
The fasting blood sugars of mice in all diabetic and normal groups were measured before the treatment and weekly during the treatments. At the end of the treatments, the percentage of FBS changes were calculated. The average percentage of FBS alterations in each group was then determined. Finally, the average result of each group was compared and analyzed with other groups by prism software.

Another assay has as its system P-S6. The experiment in a line: Western blot of pancreatic P-S6 (mTOR pathway activity). How it is done: as §1
(§6) Proteins were extracted in RIPA buffer which are containing Tris-HCl buffer (100 mM, pH 7.5), ethylene diamine tetra acetic acid (EDTA, 10 mM), sodium pyrophosphate (10 mM), sodium fluoride (0.1 mM), sodium orthovanadate (10 mM), phenylmethylsulphonyl fluoride (PMSF, 2 mM), and aprotinin (10 mg/ml). The pancreas extracts were vortexed for 30 min frequently at 4° C. The homogenates were centrifuged at 12,000 rpm for 20 min at 4° C. The supernatants were stored in an −80° C. freezer. Total protein concentration was determined by the Lowry method.
(§7) De-freeze sample was added to loading buffer and dithiothreitol 0.5 M solution, then heated for 5 min at 95° C. Sodium dodecyl sulfate-polyacrylamide gel electrophoresis (SDS PAGE) and then protein transfer to a polyvinylidene difluoride (PVDF) blotting membrane was performed. […] Finally, a result image was developed based on Western Blot-ECL ([…]) Development Protocol.
(§8) All values are depicted as mean±SEM and considered significant if p<0.05. The arbitrary optical density unit was acquired using ImageJ software (version 1.46). Data were analyzed using GraphPad Prism software and the results of groups were compared with the ANOVA test.
The activity of mTOR pathway was appraised by evaluating the changes in ribosomal P-S6 expression. As a downstream factor of the mTOR pathway, results of pancreatic P-S6 expression in all treated diabetic and normal mice were compared with their control groups. Therefore, changes in P-S6 expression proportionally reflects the activity of mTOR pathway. […] Consequently, GH pulsatile secretion and temporally treatment period in this study via transient increase in mTOR activity can induce and enhance anabolic growth during the treatment, such as cell growth, ribosomal biogenesis, and protein synthesis.

For assay [2], the system named is insulin+ and glucagon+ cells of pancreatic islets. The experiment in a line: Immunohistochemistry of pancreas sections, insulin+ and glucagon+ cells. Conditions: type 1 diabetic mice. As to the method:
as §1
Fixed tissue in 4% paraformaldehyde for 30 min at 4° C., embedded in paraffin and applied to slides. The prepared 6-μm sections were assayed as described previously. The following primary antibodies were used in these assays: rabbit anti-insulin antibody (ab63820) (1/500), mouse anti-glucagon antibody sc-514592 (1/500), mouse anti-vimentin antibody sc-6260 (1/500), rabbit recombinant anti-Ki67 (ab197547) (1/500), rat anti-CD3 antibody (ab11089) (1/500), mouse anti-CD19 antibody (sc-373897) (1/500). […]
as §3

In another assay the test system is P-STAT5. The experiment in a line: Western blot of pancreatic P-STAT5. The settings on record: for P-STAT5 expression increase in comparison with control group: diabetic mice, vs D4 (saline); for P-STAT5 expression increase compared with control group: normal mice, vs N4 (saline). As to the method: as §1, §6, §7, §8
Assay [3] is described as follows: Glucose tolerance test (GTT) at the end of the treatment. The settings on record: for effect on blood glucose levels both in FBS and GTT: diabetic mice. How it is done: as §1, §4, §5
The subject of a further assay is P-ERK. The experiment in a line: Western blot of pancreatic P-ERK. The settings on record: normal mice, vs N4 (saline). How it is done: as §1, §2, §3

With “GH: Human Growth Hormone produced by EXIR under the brand name Exitropin 4 IU (1.3 mg) (Somatropin), lyophilized powder”, the “Pax4 expression increase in comparison with control group” value in the assay on PAX4 is given as roughly 135%. Further, in assay [1], the “approximate improvement rate of fasting blood sugar in comparison with untreated control diabetic group” value is roughly 57.43% and the “mean percentage of FBS changes decreased by” value is listed as 8.2%. For the same substance, in the assay on P-S6 (diabetic mice, vs D4 (saline)), the “P-S6 expression increase in comparison with control group” value (shortened to “P-S6 expression increase in comparison”) is recorded as “no significant difference”. Further, the “P-S6 expression increase in comparison” value in the assay with P-S6 (normal mice, vs N4 (saline)) is “slight and not significant”. The beta cell regeneration result in assay [2] is “effective beta cell regeneration”. Moreover, in the assay with P-STAT5, the “P-STAT5 expression increase in comparison with control group” value is “not statistically significant”; the “P-STAT5 expression increase compared with control group” value is “slight and non-significant increase”. Besides, the “effect on blood glucose levels both in FBS and GTT” value in assay [3] is listed as “less attenuating effect”. The “blood sugar course in GTT” value in assay [3] (normal mice, glucose 2 g/kg IP) was “higher than in other normal groups”. Besides, the “P-ERK expression increase in comparison with control group” value in the assay on P-ERK is “no significant difference”.
As for “GIGKFLHSAKKFGKAFVGEIMNS (listed as Xenopus laevis) [magainin, cationic, amphipathic, a-helical antimicrobial peptide with twenty-three amino acids, synthesized by Biomatik]”, the “Pax4 expression increase in comparison with control group” value in the assay on PAX4 is on record as roughly 125%. In assay [1], the “approximate improvement rate of fasting blood sugar in comparison with untreated control diabetic group” value is roughly 97.13% and the “mean percentage of FBS changes decreased by” value is 47.9%. Also, the “P-S6 expression increase in comparison” value in the assay with P-S6 (diabetic mice, vs D4 (saline)) is on record as “no significant difference”. Also, the “P-S6 expression increase in comparison” value in the assay with P-S6 (normal mice, vs N4 (saline)) was “slight and not significant”. The beta cell regeneration entry in assay [2] is “effective beta cell regeneration”. In the assay on P-STAT5, the “P-STAT5 expression increase in comparison with control group” value is on record as “not statistically significant”; the “P-STAT5 expression increase compared with control group” value was “slight and non-significant increase”. Besides, in assay [3], the “effect on blood glucose levels both in FBS and GTT” value is listed as “greatest effect on reducing blood sugar”. Besides, the “P-ERK expression increase in comparison with control group” value in the assay on P-ERK is reported as “no significant difference”.

The values above are taken from patent US20230321185A1, “METHOD FOR TREATMENT OF TYPE-1 DIABETES IN A SUBJECT IN NEED THEREOF” (priority 2021, published 2023).
